Assay results published in patent publication US6852687B2, “Method for inhibiting apoptosis” (Sucampo AG, priority 2001, dated 2005).

Assays:
[1] = system: Conjunctival epithelial cell line CCL-20.2; assay: Caspase-3 activity of conjunctival epithelial cells incubated in serum-free medium (Z-DEVD-AFC fluorescence); format: cell-based; settings: for caspase-3 activity compared with the control group: serum-free, 24 hours, n=3
Protocol: (§1) Conjunctival epithelial cell line CCL-20.2 (obtained from American Type Culture Collection) was incubated in serum-containing medium 199 (Gibco) until 60-70% of confluent. The cells were washed with a serum-free medium and were resuspended in serum-free medium 199 containing albumin 1 mg/ml or serum-free medium 199 containing no albumin. The cells were then incubated for 24 hours and collected.
The caspase-3 activities of the collected cells were determined. The cells were lysed in a buffer solution (50 mM HEPES, 1 mM dithiothreitol and 0.1 mM EDTA (pH7.4)) containing 0.1% CHAPS (3-[(3-cholamidopropyl) dimethylammonio]-2-hydroxy-1-propanesulfonic acid) and were centrifuged to collect the supernatant. The caspase activity in the supernatant was determined with 0.1 mM fluorescence substrate (Z-DEVD-AFC) by means of fluorescence intensity measurement(em:505 nm, ex:400 nm) (n=4).
Conjunctival epithelial cell line CCL-20.2 (obtained from American Type Culture Collection) was incubated in serum-containing medium 199 (Gibco) until 70-80% of confluent. The cells were washed with serum-free medium and resuspended in serum-free medium 199 containing albumin 3 mg/ml; albumin 3 mg/ml+EGF10 ng/ml; albumin 3 mg/ml+vitamin A 0.1 μg/ml; or albumin 3 mg/ml+EGF10 ng/ml+vitamin A 0.1 μg/ml. […]
The caspase-3 activities of the collected cells were measured. […] The caspase activity in the supernatant was determined with 0.1 mM fluorescence substrate (Z-DEVD-AFC) by means of fluorescence intensity measurement(em:505 nm, ex:400 nm) (n=3). […]
The caspase-3 activities of the collected cells were measured. […] The caspase activity in the supernatant was determined with 0.1 mM fluorescence substrate (Z-DEVD-AFC) by means of fluorescence intensity measurement (em:505 nm, ex:400 nm) (n=3). […]
The caspase-3 activities of the collected cells were measured. […] The caspase activity in the supernatant was determined with 0.1 mM fluorescence substrate (Z-DEVD-AFC) by means of fluorescence intensity measurement (em: 505 nm, ex: 400 nm) (n=3).

[2] = system: Conjunctival epithelial cell line CCL-20.2; assay: DNA fragmentation (Cell Death Detection ELISAPLUS); format: cell-based; settings: Example 1; albumin 1 mg/ml in serum-free medium 199, 24 hours, n=4; measured at 405 nm; control without albumin 0.111 ± 0.018
Protocol: as §1
DNA fragmentation was determined with the Cell Death Detection ELISAPLUS (Roche Diagnostics Corporation, Basel, Switzerland). 2×10^4 cells were lysed with 0.1 ml of buffering solution and centrifuged to collect the supernatant. The obtained supernatant as well as positive and background controls, each in the amount of 20 μl, was respectively added to a plate coated with streptavidin. After adding an immunologic reagent (incubation buffer: antihistone-biotin: anti-DNA-POD=18:1:1) 80 μl to each plate, it was coated with a film and shaken at 300 rpm for 2 hours at room temperature. Then the plate was washed with incubation buffer 250-300 μl for 3 times. After adding substrate (ABTS) solution 100 μl to the plate, it was shaken at 250 rpm for 10-20 minutes at room temperature. The measurement was 405 nm (reference wavelength 492 nm)(n=4).

albumin
Caspase-3 activity mean ± S.E. ([1]; Example 1, albumin 1 mg/ml in serum-free medium 199, 24 hours, n=4, control without albumin 0.744 ± 0.246): 0.510 ± 0.191 n mol/hr/mg protein
caspase-3 activity compared with the control group ([1]; Example 2, FIG. 1, albumin 3 mg/ml, EGF 10 ng/ml, vitamin A 0.1 μg/ml): significantly lower
caspase-3 activity compared with the control group ([1]; Example 3, FIG. 2, albumin 1 mg/ml, TGFα 10 ng/ml, TGFβ 10 ng/ml): significantly lower
DNA fragmentation mean ± S.E. [2]: 0.096 ± 0.047
